From patent US20100063089A1, “SUCCINATE SALT OF 2-((4-(1-METHYL-4-PYRIDIN-4-YL)-1H-PYRAZOL-3-YL)PHENOXY)METHYL)QUINOLINE” (PFIZER INC, priority 2006, published 2010)

Key:
[1] = isothermal moisture sorption test; type: physicochemical; conditions: at 90±2% relative humidity; isothermal 25.1±0.1° C.; conducted from approximately 1% to 90% (±2%) humidity
Description: In another embodiment, the succinate salt increases in weight by less than 0.5% at 90±2% relative humidity in an isothermal (25.1±0.1° C.) moisture sorption test conducted from approximately 1% to 90% (±2%) humidity.

[2] = solid-state properties for formulation (deliquescence, hygroscopicity); type: physicochemical; conditions: solid salt

- increase in weight in moisture sorption test [1]: less than 0.5%
- deliquescence [2]: not deliquescent
- hygroscopicity [2]: non-hygroscopic
Compound: Cn1cc(-c2ccncc2)c(-c2ccc(OCc3ccc4ccccc4n3)cc2)n1.O=C(O)CCC(=O)O [succinate salt, succinate salt of 2-((4-(1-methyl-4-(pyridin-4-yl)-1H-pyrazol-3-yl)phenoxy)methyl)quinoline]
